Molecules are shown by their SMILES. Like-named read-outs stand apart in the source and are kept apart here. *1 amine or outer side, *2 acyl side, *3 side chain or, on linkers, in order; H or OH if unused. Where a SMILES comes first, the peptide text is derived from it. Side-chain parts run from the residue outwards. [ ]: non-standard residue; d: D form. The star is where a group is joined. C20 diacid = O=C(O)CCCCCCCCCCCCCCCCCCC(=O)*; C18 diacid = O=C(O)CCCCCCCCCCCCCCCCC(=O)*; γGlu = O=C(O)[C@H](CCC(=O)[*:2])N[*:1]; AEEA = NCCOCCOCC(=O)O; Aib = CC(C)(N)C(=O)O

Data set [1] in a line: Pharmacokinetics of selected compounds in mice. The conditions noted are these: mouse, plasma; for bioavailability: subcutaneous, AUCinf (s.c.)/AUCinf (i.v.)x100, values marked * capped to 100%. Type of data set: in vivo, C57BL/6J mice. The protocol:
Pharmacokinetics of Selected Compounds in Mice
C57BL/6J mice (males with a body weight of approximately 25 g) were given either a single subcutaneous (s.c.) bolus or a single intravenous (i.v.) bolus of each peptide to be tested.
Following s.c. administration of the selected compounds (50, 100 or 200 nmol/kg), blood samples were drawn at 8 (eight) timepoints up to 72 hours post-dose. Following i.v. administration of the selected compounds (50, 100 or 200 nmol/kg), blood samples were drawn at 8 (eight) timepoints up to 48 hours post-dose. Blood samples were drawn by sublingual bleeding. The dosing vehicle was a phosphate buffer containing mannitol (pH 7.5).
At each sampling time point, samples from two mice were drawn, i.e. 16 mice were included for each compound and each administration route. The mice were euthanized immediately after blood sampling by cervical dislocation. Plasma samples were analyzed after solid phase extraction (SPE) or protein precipitation followed by liquid chromatography mass spectrometry (LC-MS/MS). Mean plasma concentrations were used for calculation of the pharmacokinetic parameters using the non-compartmental approach in Phoenix WinNonlin 6.3. Plasma terminal elimination half-life (T½) was determined as […] where λz is the magnitude of the slope of the log linear regression of the log concentration versus time profile during the terminal phase. Bioavailability was determined as AUCinf (s.c.)/AUCinf (i.v.)×100, where AUCinf is the area under the plasma concentration−time curve extrapolated to infinity (AUCinf=AUClast+Clast/λz, where Clast is the last observed plasma concentration). Tmax is the post-dose time where the maximal plasma concentration was observed.

The target in another data set is T1, human GIP R (Homo sapiens, UniProt P48546).
T1 construct: expressed in transfected cells
T1 sequence (P48546 22-466): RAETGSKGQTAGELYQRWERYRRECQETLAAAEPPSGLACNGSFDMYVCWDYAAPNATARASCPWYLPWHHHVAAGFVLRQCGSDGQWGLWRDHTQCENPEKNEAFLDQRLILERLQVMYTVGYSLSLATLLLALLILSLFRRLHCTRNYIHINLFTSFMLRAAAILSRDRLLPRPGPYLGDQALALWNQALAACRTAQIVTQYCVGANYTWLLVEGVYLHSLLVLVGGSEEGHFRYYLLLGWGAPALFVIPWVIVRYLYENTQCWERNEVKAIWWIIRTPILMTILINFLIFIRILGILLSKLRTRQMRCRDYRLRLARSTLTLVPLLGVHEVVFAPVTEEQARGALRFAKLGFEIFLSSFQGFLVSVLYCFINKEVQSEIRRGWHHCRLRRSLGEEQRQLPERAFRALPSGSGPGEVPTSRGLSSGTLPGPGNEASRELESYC
In words: Human GIP receptor (GIP R) activity assay, cAMP induction (AlphaScreen) in HEK293 cells. Type of data set: cell-based. The conditions noted are these: read-out: hGIP-R cAMP EC50 average value. In outline: (§1)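 Stable HEK293 clones expressing human GIP R or GLP-1 R, seeded 1 day before; cells washed in Tyrode's buffer (10 mM HEPES, pH 7.4), stimulated, then lysed. cAMP measured by AlphaScreen bead competition (1 h, room temperature, dark). EC50 = concentration giving half-maximal cAMP elevation, from curves of absolute cAMP (nM) vs log concentration.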
On the technique in general: Bead proximity is the source of the signal in Alpha formats.

The next data set deals with T2, human GLP-1 R (Homo sapiens, UniProt P43220).
T2 construct: expressed in transfected cells
T2 sequence (P43220 24-463): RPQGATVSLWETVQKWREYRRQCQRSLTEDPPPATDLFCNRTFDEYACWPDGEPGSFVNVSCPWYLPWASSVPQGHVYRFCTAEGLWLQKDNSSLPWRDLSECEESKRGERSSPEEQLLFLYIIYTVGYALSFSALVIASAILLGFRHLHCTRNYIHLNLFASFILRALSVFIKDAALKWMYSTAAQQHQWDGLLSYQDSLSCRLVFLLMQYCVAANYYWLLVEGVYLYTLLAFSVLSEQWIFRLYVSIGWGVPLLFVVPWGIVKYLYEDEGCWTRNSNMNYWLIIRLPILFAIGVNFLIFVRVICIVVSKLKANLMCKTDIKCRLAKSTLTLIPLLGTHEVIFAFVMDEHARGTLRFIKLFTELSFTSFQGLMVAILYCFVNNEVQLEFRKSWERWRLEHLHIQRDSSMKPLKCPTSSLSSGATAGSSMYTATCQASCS
In words: Human GLP-1 receptor (GLP-1 R) activity assay, cAMP induction (AlphaScreen) in HEK293 cells. Type of data set: cell-based. In outline: as §1

The mark [2] stands for this setting: male, C57BL/6J, iv, single i.v. bolus, read-out: T½ terminal elimination half-life, i.v. (converted).
Setting [3] is: male, C57BL/6J, sc, single s.c. bolus.
Setting [4] is: Table 2, HEK293 cells expressing human GIP R.
Setting [5] is: Table 2a, secondary assay study.
Where [6] appears, read: Table 3, most comprehensive data.
Setting [7] is: Table 2, HEK293 cells expressing human GLP-1 R, read-out: hGLP1-R cAMP EC50 average value.
The mark [8] stands for this setting: Table 2a, secondary assay study, read-out: hGLP1-R cAMP EC50 average value.

With `CC[C@H](C)[C@H](NC(=O)[C@H](CO)NC(=O)[C@H](Cc1ccc(O)cc1)NC(=O)[C@H](CC(=O)O)NC(=O)[C@H](CO)NC(=O)[C@@H](NC(=O)[C@H](Cc1ccccc1)NC(=O)[C@@H](NC(=O)CNC(=O)[C@H](CCC(=O)O)NC(=O)C(C)(C)NC(=O)[C@@H](N)Cc1ccc(O)cc1)[C@@H](C)O)[C@@H](C)O)C(=O)N[C@@H](Cc1ccc(O)cc1)C(=O)N[C@@H](CC(C)C)C(=O)N[C@@H](CC(=O)O)C(=O)N[C@@H](CCCCN)C(=O)N[C@@H](CCCCNC(=O)COCCOCCNC(=O)COCCOCCNC(=O)CC[C@H](NC(=O)CCCCCCCCCCCCCCCCCCC(=O)O)C(=O)O)C(=O)N[C@@H](C)C(=O)N[C@@H](CCC(N)=O)C(=O)N[C@@H](CCCNC(=N)N)C(=O)N[C@@H](C)C(=O)N[C@@H](Cc1ccccc1)C(=O)N[C@H](C(=O)N[C@@H](CCC(=O)O)C(=O)N[C@@H](Cc1c[nH]c2ccccc12)C(=O)N[C@@H](CC(C)C)C(=O)N[C@@H](CC(C)C)C(=O)N[C@@H](C)C(=O)N[C@@H](CCC(N)=O)C(=O)NCC(=O)N1CCC[C@H]1C(=O)N[C@@H](CO)C(=O)N[C@@H](CO)C(=O)NCC(=O)N[C@@H](C)C(=O)N1CCC[C@H]1C(=O)N1CCC[C@H]1C(=O)N1CCC[C@H]1C(=O)N[C@@H](CO)C(N)=O)C(C)C` [Compound 2] (H-Y[Aib]EGTFTSDYSIYLDKK([AEEA-AEEA-γGlu-C20 diacid])AQRAFVEWLLAQGPSSGAPPPS-NH2), the half-life – broadly, how long it takes for the measured level to halve – in data set [1] (setting [2]) is 16.6 h; in data set [1] (male, C57BL/6J, sc, single s.c. bolus, read-out: T½ terminal elimination half-life, s.c. (converted)), 16.5 h. Besides, the bioavailability (as a rule, the share of a dose that reaches the circulation, judged against a reference dose that is usually intravenous) in data set [1] (male, C57BL/6J) came out at 83%. The Tmax (in general, the time from dosing to the highest level) in data set [1] (setting [3]) came out at 6 h. In addition, the EC50 (as a rule, the concentration needed to bring the measured effect to its halfway point) amounted to 4.9 pM at human GIP R (setting [4]); 8 pM on human GIP R (setting [5]); 8 pM on human GIP R (setting [6]); 8.3 pM on human GLP-1 R (setting [7]); 11 pM on human GLP-1 R (setting [8]); 11 pM at human GLP-1 R (Table 3, most comprehensive data, read-out: hGLP-1-R cAMP EC50 average value).
Take `CC[C@H](C)[C@H](NC(=O)[C@H](CO)NC(=O)[C@H](Cc1ccc(O)cc1)NC(=O)[C@H](CC(=O)O)NC(=O)[C@H](CO)NC(=O)[C@@H](NC(=O)[C@H](Cc1ccccc1)NC(=O)[C@@H](NC(=O)CNC(=O)[C@H](CCC(=O)O)NC(=O)C(C)(C)NC(=O)[C@@H](N)Cc1ccc(O)cc1)[C@@H](C)O)[C@@H](C)O)C(=O)N[C@@H](Cc1ccc(O)cc1)C(=O)N[C@@H](CC(C)C)C(=O)N[C@@H](CC(=O)O)C(=O)N[C@@H](CCCCN)C(=O)N[C@@H](CCCCNC(=O)CC[C@H](NC(=O)CCCCCCCCCCCCCCCCC(=O)O)C(=O)O)C(=O)N[C@@H](C)C(=O)N[C@@H](CCC(N)=O)C(=O)N[C@@H](CCCNC(=N)N)C(=O)N[C@@H](C)C(=O)N[C@@H](Cc1ccccc1)C(=O)N[C@H](C(=O)N[C@@H](CCC(=O)O)C(=O)N[C@@H](Cc1c[nH]c2ccccc12)C(=O)N[C@@H](CC(C)C)C(=O)N[C@@H](CC(C)C)C(=O)N[C@@H](C)C(=O)N[C@@H](CCC(N)=O)C(=O)NCC(=O)N1CCC[C@H]1C(=O)N[C@@H](CO)C(=O)N[C@@H](CO)C(=O)NCC(=O)N[C@@H](C)C(=O)N1CCC[C@H]1C(=O)N1CCC[C@H]1C(=O)N1CCC[C@H]1C(=O)N[C@@H](CO)C(N)=O)C(C)C` [Compound 3] (H-Y[Aib]EGTFTSDYSIYLDKK([γGlu-C18 diacid])AQRAFVEWLLAQGPSSGAPPPS-NH2): the half-life in data set [1] (setting [2]) was 9.1 h. Besides, the bioavailability in data set [1] (male, C57BL/6J) came out at 89%. In data set [1] (setting [3]), the time of peak concentration (Tmax) turned out to be 8 h. Also, the concentration for a half-maximal effect (EC50) is 8.6 pM on human GIP R (setting [4]); 9 pM at human GIP R (setting [5]); 9 pM at human GIP R (setting [6]); 11 pM at human GLP-1 R (setting [7]); 11 pM at human GLP-1 R (setting [8]).
With `CC[C@H](C)[C@H](NC(=O)[C@H](CO)NC(=O)[C@H](Cc1ccc(O)cc1)NC(=O)[C@H](CC(=O)O)NC(=O)[C@H](CO)NC(=O)[C@@H](NC(=O)[C@H](Cc1ccccc1)NC(=O)[C@@H](NC(=O)CNC(=O)[C@H](CCC(=O)O)NC(=O)C(C)(C)NC(=O)[C@@H](N)Cc1ccc(O)cc1)[C@@H](C)O)[C@@H](C)O)C(=O)N[C@@H](Cc1ccc(O)cc1)C(=O)N[C@@H](CC(C)C)C(=O)N[C@@H](CC(=O)O)C(=O)N[C@@H](CCCCN)C(=O)N[C@@H](CCCCNC(=O)CNC(=O)CNC(=O)[C@H](CO)NC(=O)CNC(=O)[C@H](CO)NC(=O)CNC(=O)CC[C@H](NC(=O)CCCCCCCCCCCCCCCCC(=O)O)C(=O)O)C(=O)N[C@@H](C)C(=O)N[C@@H](CCC(N)=O)C(=O)N[C@@H](CCCNC(=N)N)C(=O)N[C@@H](C)C(=O)N[C@@H](Cc1ccccc1)C(=O)N[C@H](C(=O)N[C@@H](CCC(=O)O)C(=O)N[C@@H](Cc1c[nH]c2ccccc12)C(=O)N[C@@H](CC(C)C)C(=O)N[C@@H](CC(C)C)C(=O)N[C@@H](C)C(=O)N[C@@H](CCC(N)=O)C(=O)NCC(=O)N1CCC[C@H]1C(=O)N[C@@H](CO)C(=O)N[C@@H](CO)C(=O)NCC(=O)N[C@@H](C)C(=O)N1CCC[C@H]1C(=O)N1CCC[C@H]1C(=O)N1CCC[C@H]1C(=O)N[C@@H](CO)C(N)=O)C(C)C` [Compound 4], the half-life was 8.7 h in data set [1] (iv, single i.v. bolus, read-out: T½ terminal elimination half-life, i.v. (converted)) and 10.8 h in data set [1] (sc, single s.c. bolus, read-out: T½ terminal elimination half-life, s.c. (converted)). In data set [1], this compound yielded a bioavailability of 100%. Also, the Tmax in data set [1] (sc, single s.c. bolus) is 6 h. Further, the EC50 on human GIP R (setting [4]) was determined as 8.7 pM; on human GIP R (setting [5]), 9 pM; at human GIP R (setting [6]), 9 pM; at human GLP-1 R (setting [7]) it was 10 pM.
On to `CC[C@H](C)[C@H](NC(=O)[C@H](CO)NC(=O)[C@H](Cc1ccc(O)cc1)NC(=O)[C@H](CC(=O)O)NC(=O)[C@H](CO)NC(=O)[C@@H](NC(=O)[C@H](Cc1ccccc1)NC(=O)[C@@H](NC(=O)CNC(=O)[C@H](CCC(=O)O)NC(=O)C(C)(C)NC(=O)[C@@H](N)Cc1ccc(O)cc1)[C@@H](C)O)[C@@H](C)O)C(=O)N[C@@H](Cc1ccc(O)cc1)C(=O)N[C@@H](CC(C)C)C(=O)N[C@@H](CC(=O)O)C(=O)N[C@@H](CCCCN)C(=O)N[C@@H](CCCCNC(=O)COCCOCCNC(=O)COCCOCCNC(=O)COCCOCCNC(=O)CC[C@H](NC(=O)CCCCCCCCCCCCCCCCCCC(=O)O)C(=O)O)C(=O)N[C@@H](C)C(=O)N[C@@H](CCC(N)=O)C(=O)N[C@@H](CCCNC(=N)N)C(=O)N[C@@H](C)C(=O)N[C@@H](Cc1ccccc1)C(=O)N[C@H](C(=O)N[C@@H](CCC(=O)O)C(=O)N[C@@H](Cc1c[nH]c2ccccc12)C(=O)N[C@@H](CC(C)C)C(=O)N[C@@H](CC(C)C)C(=O)N[C@@H](C)C(=O)N[C@@H](CCC(N)=O)C(=O)NCC(=O)N1CCC[C@H]1C(=O)N[C@@H](CO)C(=O)N[C@@H](CO)C(=O)NCC(=O)N[C@@H](C)C(=O)N1CCC[C@H]1C(=O)N1CCC[C@H]1C(=O)N1CCC[C@H]1C(=O)N[C@@H](CO)C(N)=O)C(C)C` [Compound 8] (H-Y[Aib]EGTFTSDYSIYLDKK([AEEA-AEEA-AEEA-γGlu-C20 diacid])AQRAFVEWLLAQGPSSGAPPPS-NH2), for which, in data set [1] (setting [2]), the half-life is 17.2 h. The same compound registered a bioavailability in data set [1] (male, C57BL/6J) of 54%. The Tmax in data set [1] (setting [3]) came out at 8 h. The EC50 on human GIP R (setting [4]) worked out at 5.3 pM; on human GIP R (setting [5]), 5 pM; at human GIP R (setting [6]), 5 pM; at human GLP-1 R (setting [7]), 12 pM; on human GLP-1 R (setting [8]), 12 pM.

The values above are taken from patent US10093713B2, “GIP-GLP-1 dual agonist compounds and methods” (priority 2013, dated 2018).
